1 molecule from patent US8530466B2, “Use of 2,4-pyrimidinediamines for the treatment of atherosclerosis” (Rigel Pharmaceuticals, Inc., priority 2008, dated 2013) can be followed below.

A word on the EC50: it is the concentration at which the effect is half-maximal.

The subject of test [1] is Platelets in PRP. The experiment in a line: CD62P surface expression by stimulated platelets (flow cytometry). In kind it is cell-based, Human. To be noted: 15 min at 37° C. The procedure: Human peripheral blood, from healthy volunteers who had not taken any medication for at least 7 days, was drawn into Vacutainer-ACD tubes (Acid citrate dextrose (ACD) Solution Tubes, VWR Cat. No. VT4606). Platelet-rich plasma (PRP) and platelet-poor plasma (PPP) were prepared by differential centrifugation (200 g and >2500 g, respectively, 20 min, RT). Platelets in PRP were incubated for 10 min at 37° C. with test article-DMSO solutions that had been previously diluted in MT buffer (137 mM NaCl, 2.7 mM KCl, 1.8 mM CaCl2, 1.0 mM MgCl2, 5.6 mM glucose, 20 mM Hepes, 0.1% BSA; pH 7.4). The test articles included dimethyl Sulfoxide (DMSO) (Sigma-Aldrich, Cat No. D2650), wortmannin Penicillium funiculosum (Sigma-Aldrich, Cat No. W1628), and 6-(5-fluoro-2-(3,4,5-trimethoxyphenylamino)pyrimidin-4-ylamino)-2,2-dimethyl-2H-pyrido[3,2-b][1,4]oxazin-3(4H)-one (compound 1).
Cells were stimulated with collagen (Chronolog Corp. Cat. No. 385) at 20 μg/mL, adenosine 5′-diphosphate (ADP) (Sigma-Aldrich Cat. No. A2754) at 33 μM, or phorbol 12-Myristate 13-Acetate (PMA) (Sigma-Aldrich Cat. No. P8139) at 33 ng/mL, for 15 min at 37° C., then incubated with staining antibody (anti-CD62P PE) at RT in the dark for 20 min, and fixed with paraformaldehyde (Cytofix fixation buffer) in the dark for 30 min at RT. Finally, cells were washed with PBS containing 2% fetal bovine serum and stored at 4° C. in the dark prior to flow cytometry. Measurements were performed using a FACScalibur flow cytometer (BD Biosciences, San Jose, Calif., USA). CD62P expression was expressed as geometric mean fluorescence on the vertical axis.
In general terms: A flow cytometer gives signals particle by particle.

The test system of test [2] is Human mast cells (CHMC). The experiment in a line: Mast cell activation induced by FcγR cross-linking: LTC4 release (ELISA). In kind it is cell-based. To be noted: anti-IgG 1 μg/ml. How it is done: (§1) Human mast cells were cultured and differentiated from CD38-negative progenitor cell as described in U.S. Patent Publication No. 2005-234049, incorporated herein by reference. […] A80-105A3) final concentration 1 μg/ml, was added to the test wells. MT (25 μl) was added to control wells. After a 60-minute incubation at 37° C., cells and cell debris were pelleted by centrifugation at 1000 rpm for 10 min and tryptase and leukotriene C4 levels were measured. Leukotriene C4 (LTC4) levels were quantified using an ELISA kit on appropriately diluted supernatant samples following the supplier's instructions (Cayman Chemical Co., Cat No. 520211). Inhibition of release and/or synthesis of lipid mediators was assessed by measuring the release of LTC4 and inhibition of release and/or synthesis of cytokines was monitored by quantifying TNFα, IL-8, GM-CSF, IL-10 and IL-13. Cytokine (TNFα, IL-8, GM-CSF, IL-10, IL-13) production was measured 6-8 hrs post-IgG crosslinking. Leukotriene and cytokine levels were quantified using the following commercial ELISA kits: LTC4 (Cayman Chemical #520211), TNFα (Biosource #KHC3011), GM-CSF (Biosource #KHC0901), IL-10 (Biosource #KHC0122), and IL-13 (Biosource #KHC0132).
(In general: An ELISA detects its analyte on a solid surface through an enzyme-linked reagent.)

Test [3] relates to Human mast cells (CHMC). As to the kind of experiment: Mast cell activation induced by FcγR cross-linking: degranulation (tryptase). It is filed as cell-based. The settings on record: anti-IgG 1 μg/ml, 60-minute incubation. How it is done: Human mast cells were cultured and differentiated from CD38-negative progenitor cell as described in U.S. Patent Publication No. 2005-234049, incorporated herein by reference. For example, 65 μl of various concentrations of 6-(5-fluoro-2-(3,4,5-trimethoxyphenylamino) pyrimidin-4-ylamino)-2,2-dimethyl-2H-pyrido[3,2-b][1,4]oxazin-3(4H)-one (compound 1), prepared in MT (137 mM NaCl, 2.7 mM KCl, 1.8 mM CaCl2, 1.0 mM MgCl2, 5.6 mM Glucose, 20 mM Hepes (pH 7.4), 0.1% Bovine Serum Albumin, (Sigma A4503)) containing 2% MeOH and 1% DMSO, or control buffer were added to duplicate 96-well V-bottom plates. Pelleted and resuspended (in warm MT) CHMC cells (65 μl) were added to each 96-well plate, mixed and incubated for 1 hr at 37° C. […] After a 60-minute incubation at 37° C., cells and cell debris were pelleted by centrifugation at 1000 rpm for 10 min and tryptase and leukotriene C4 levels were measured.
To measure tryptase levels, 25 μl of supernatant from each well was transferred to a fresh 96-well black bottom plate, to which 100 μl of fresh tryptase substrate solution [(Z-Ala-Lys-Arg-AMC2TFA; Enzyme Systems Products, #AMC-246)] […] After 30 min incubation at room temperature, the optical density of the plates is measured at 355 nm/460 nm on a spectrophotometric plate reader. […]

In test [4] the test system is Human mast cells (CHMC). As to the kind of experiment: Mast cell activation induced by FcγR cross-linking: cytokine production (ELISA). The settings on record: 6-8 hrs post-IgG crosslinking. In kind it is cell-based. The procedure:
as §1, with “measured.” for “measured. Leukotriene C4 (LTC4) levels were quantified using an ELISA kit on appropriately diluted supernatant samples following the supplier's instructions (Cayman Chemical Co., Cat No. 520211).”

As to `COc1cc(Nc2ncc(F)c(Nc3ccc4c(n3)NC(=O)C(C)(C)O4)n2)cc(OC)c1OC` [Compound 1, 6-(5-fluoro-2-(3,4,5-trimethoxyphenylamino)pyrimidin-4-ylamino)-2,2-dimethyl-2H-pyrido[3,2-b][1,4]oxazin-3(4H)-one], in test [1] (ADP 33 μM), the “CD62P surface upregulation in platelets induced by ADP” value is on record as “did not inhibit”. In test [1] (PMA 33 ng/mL), the “CD62P surface upregulation in platelets induced by PMA” value was “did not inhibit”. In addition, in test [1] (collagen 20 μg/mL), the “collagen receptor mediated platelet activation (CD62P surface expression)” value is recorded as “inhibited”. In addition, the EC50 in test [2] (Homo sapiens, Mast cell) worked out at 36 nM; in test [2] (listed as lot B), 47 nM; in test [3] (Homo sapiens, Mast cell, 1 h), 53 nM; in test [3] (listed as lot B) it was 76 nM; in test [4] (listed as lot B, read-out: EC50 GMCSF), 67 nM; in test [4] (listed as lot B, read-out: EC50 IL-8), 62 nM. Further, the EC50 was 148 nM in test [4] (listed as lot B, read-out: EC50 IL-10); 148 nM in test [4] (listed as lot B, read-out: EC50 IL-13); 120 nM in test [4] (listed as lot B, read-out: EC50 TNFα); 46 nM in test [4] (Homo sapiens, Mast cell, read-out: EC50 GMCSF); 45 nM in test [4] (Homo sapiens, Mast cell, read-out: EC50 IL-8); 125 nM in test [4] (Homo sapiens, Mast cell, read-out: EC50 IL-10). Moreover, in test [4] (Homo sapiens, Mast cell, read-out: EC50 IL-13), the EC50 turned out to be 90 nM.
